# Reference: patent publication US11439607B2 (Paracelsus Neuroscience I, LLC, priority 2016, dated 2022)
# Read-outs that look alike come from different tables or passages of the source.
# How the values were obtained:
# Healthy rats [1] = assay: Healthy rats - Tail flick test; format: in vivo; conditions: Senicapoc 100 mg/kg PO, 240 min after treatment
# Description: (§1) Depending on the test, the percentage of activity was calculated from the mean value of the vehicle-treated animals and compared to naïve animals, control paw or cut-off value.
# Formalin test = Formalin test - Score; format: in vivo, rodent; conditions: Senicapoc 100 mg/kg PO, 240 min after treatment
# Description: as §1
# [2] = Plasma and brain free fraction by equilibrium dialysis; format: in vitro ADME, rat; design: dose or concentration left out as unconfirmed
# Description: Briefly, naive plasma and brain tissues were homogenized in 3× and 4× w/v in homogenization buffer (50:30:20 H2O:IPA:DMS0), respectively. […] Following equilibration, the buffer sample was fortified with a fixed volume of blank tissue homogenate and the tissue sample was fortified with a fixed volume of buffer. Protein precipitation was performed with ice cold acetonitrile in the presence of an analytical internal standard. The supernatants were quantified for senicapoc using LC-MS/MS as described earlier.
# melatonin 1A receptors = molecular target: T1, melatonin 1A receptors (Homo sapiens, UniProt P48039); assay: Off target screen (CEREP panel) and dose response; format: binding
# T1 construct: CEREP (contract screening)
# μ-opioid receptors = molecular target: T2, μ-opioid receptors (Homo sapiens, UniProt P35372); assay: Off target screen (CEREP panel) and dose response; format: binding
# T2 construct: CEREP (contract screening)
# Carrageenan model = assay: Carrageenan - Paw pressure test; format: in vivo, rodent; conditions: Senicapoc 100 mg/kg PO, 240 min after treatment
# Description: as §1
# Oxaliplatin model = assay: Oxaliplatin - Acetone test (reaction time); format: in vivo, rodent; conditions: Senicapoc 100 mg/kg PO, 240 min after treatment
# Description: as §1
# [3] = Plasma, brain and spinal cord exposure in CCI rats; format: in vivo, rat; conditions: for Kp at 4 h / concentration at 4 h: male, Sprague-Dawley, rat; for concentration at 4 h: po
# Description: Male Sprague-Dawley rats (Crl:SD, Charles River) weighing 200-350 g were dosed to determine tissue exposure at 10 mg/kg p.o. (n=3) for screening pharmacokinetics (PK), and at 10, 30 and 100 mg/kg p.o. for the CCI studies (n=3 from each treatment group taken from the last arm of study). […] The rats were then decapitated and trunk blood was collected to in K3EDTA containing tubes. Plasma samples were generated by centrifugation (3500×g), and stored frozen at −20° C. until bioanalysis. The brains were harvested immediately following blood collection and stored frozen until bioanalysis at −20° C. For CCI animals, the plasma and brain harvests as described for the screening PK, although the tissue collection was initiated after the behavioral assessment was completed, approximately 4 hours 15 minutes after dosing. For spinal column harvest, a 20-gauge needle on a 10 ml syringe filled with cold saline was inserted into the spinal cord. The saline was used to flush the spinal column out. The spinal column tissues were then stored frozen at −20° C. prior to exposure measurements.
# Prior to analysis, the brain and spinal cord samples were thawed at room temperature, weighed and homogenized using a homogenizing solution (IPA/H2O/DMSO; 30:50:20) at a ratio of 3/1 (ml/g) to generate tissue homogenates. An aliquot of 50 μl plasma, or 50 μl brain and spinal cord homogenates is mixed with 150 μl of a DMSO/ACN (20:80) solution that contains an internal standard (50 ng/ml). The diluted plasma, brain and spinal cord sample is then centrifuged (˜500 g for 15 min at 10° C.), supernatant is removed and then injected (10 μl) onto LC/MS/MS system for analysis. An Atlantis T3 column 2.6μ C18, 50×2.1 mm (Waters, Mass.) was used for analytical separation of the acid. A 6-minute mobile phase gradient was employed with mobile phase A (0.1% formic acid in water) ramping down from 99% to 1% (0-4 minutes), and then ramping back up to 99% (4-6 minutes), while ramping up solvent B (1% formic acid in ACN), from 1% to 99% (0-4 minutes), and then ramping down to 1% (4-6 minutes). Spectra was acquired in positive SRM mode with the parent mass of 324 and a daughter ion of 228.
# Rat primary microglia [4] = assay: Microglial IL-1β release (LPS priming, BzATP); format: cell-based
# Description: Rat primary microglia were primed with 3 EU/mL of ultra-pure Lipopolysaccharide (control standard endotoxin (CSE) Associates of Cape Cod, Falmouth, Mass.). […] Cell free supernatants were assayed for IL-1β using a custom rat cytokine assay (N451A-1; MesoScale Discovery, Rockville, Md.). IC50S were determined using Prism (Graphpad, San Diego, Calif.)
# (§2) After 24 hours, media was assayed for nitrite (stable metabolite of NO). […] Primary rat cortical microglia were also treated with LPS (3 EU/ml, 3 hours) to stimulate the production of pro-IL-1β.
# Bennett model = Bennett model - Paw pressure test; format: in vivo, rodent; conditions: Senicapoc 100 mg/kg PO, 240 min after treatment
# Description: as §1
# Rat primary microglia [5] = assay: Microglial NO release (measurement of nitrite) after LPS; format: cell-based; conditions: 24 hours
# Description: Next, 3 EU/ml of ultra-pure Lipopolysaccharide (CSE, Associates of Cape Cod) was added to induce iNOS expression and NO synthesis. After a total incubation time of 24 hours, media was collected, spun down to remove cells and assayed for nitrite (the stable breakdown product of NO) using Griess Reagent (Promega, Madison Wis.).
# as §2
# κ-opioid receptors = molecular target: T3, κ-opioid receptors (Homo sapiens, UniProt P41145); assay: Off target screen (CEREP panel) and dose response; format: binding
# T3 construct: CEREP (contract screening)
# Kaolin model = assay: Kaolin - Gait score; format: in vivo, rodent; conditions: Senicapoc 100 mg/kg PO, 240 min after treatment
# Description: as §1
# Healthy rats [6] = assay: Healthy rats - Paw pressure test; format: in vivo; conditions: Senicapoc 100 mg/kg PO, 240 min after treatment
# Description: as §1
# [7] = full dose response curve, functional testing
# T1 sequence (P48039 whole entry): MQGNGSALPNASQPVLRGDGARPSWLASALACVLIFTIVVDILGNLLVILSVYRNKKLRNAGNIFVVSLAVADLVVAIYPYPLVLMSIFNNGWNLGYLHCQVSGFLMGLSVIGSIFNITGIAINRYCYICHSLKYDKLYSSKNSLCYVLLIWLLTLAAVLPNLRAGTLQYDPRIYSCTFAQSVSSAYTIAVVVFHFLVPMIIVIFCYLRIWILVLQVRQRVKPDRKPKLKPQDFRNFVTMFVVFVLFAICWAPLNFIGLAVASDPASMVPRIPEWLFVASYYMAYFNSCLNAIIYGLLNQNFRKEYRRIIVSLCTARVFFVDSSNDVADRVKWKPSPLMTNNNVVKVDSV
# T2 sequence (P35372 whole entry): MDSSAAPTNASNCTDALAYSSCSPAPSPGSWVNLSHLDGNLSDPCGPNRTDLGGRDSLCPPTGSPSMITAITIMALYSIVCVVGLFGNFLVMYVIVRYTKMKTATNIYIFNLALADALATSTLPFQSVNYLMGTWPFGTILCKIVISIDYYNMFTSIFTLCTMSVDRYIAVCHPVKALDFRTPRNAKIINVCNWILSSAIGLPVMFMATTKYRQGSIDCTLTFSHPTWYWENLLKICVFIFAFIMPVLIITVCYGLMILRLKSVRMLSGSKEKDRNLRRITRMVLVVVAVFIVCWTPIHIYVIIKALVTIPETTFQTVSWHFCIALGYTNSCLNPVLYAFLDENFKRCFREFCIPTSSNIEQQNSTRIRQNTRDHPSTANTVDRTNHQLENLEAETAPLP
# T3 sequence (P41145 whole entry): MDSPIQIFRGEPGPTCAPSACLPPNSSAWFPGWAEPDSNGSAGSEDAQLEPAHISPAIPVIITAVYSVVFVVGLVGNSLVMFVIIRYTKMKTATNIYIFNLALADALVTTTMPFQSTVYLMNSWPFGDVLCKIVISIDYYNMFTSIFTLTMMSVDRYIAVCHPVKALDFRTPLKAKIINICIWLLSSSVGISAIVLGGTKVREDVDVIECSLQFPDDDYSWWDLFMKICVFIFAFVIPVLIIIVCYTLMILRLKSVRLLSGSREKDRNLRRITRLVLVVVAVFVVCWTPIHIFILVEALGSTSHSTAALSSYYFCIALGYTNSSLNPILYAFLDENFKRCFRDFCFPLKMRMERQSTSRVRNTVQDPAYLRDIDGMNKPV
smiles,measurement,setting,value
NC(=O)C(c1ccccc1)(c1ccc(F)cc1)c1ccc(F)cc1 [Senicapoc],% of activity vs. vehicle,Healthy rats [1],9%
same,% of activity vs. vehicle,Formalin test; early phase,14%
same,% of activity vs. vehicle,Formalin test; late phase,8%
same,fraction unbound at 2.5 h,"[2]; brain homogenate (4x w/v in homogenization buffer), rat brain homogenate, read-out: In vitro rat brain free fraction (UBBr)",0.008
same,fraction unbound at 2.5 h,"[2]; plasma (diluted 3x w/v in homogenization buffer), rat plasma, read-out: In vitro rat plasma free fraction (UBP)",0.027
same,inhibition at 10 µM,melatonin 1A receptors; 10 μM,> 50%
same,IC50,melatonin 1A receptors; [7],1700 nM
same,inhibition at 10 µM,μ-opioid receptors; 10 μM,> 50%
same,IC50,μ-opioid receptors; [7],12000 nM
same,% of activity vs. vehicle,Carrageenan model,116%
same,% of activity vs. vehicle,Oxaliplatin model,68%
same,Spinal Cord,"[3]; 10 mg/kg PO, 4 h, LLQ 773 nM",<LLQ^γ
same,Plasma,"[3]; 10 mg/kg PO, 4 h, n = 1 (2 samples <LLQ 773 nM)",782^£ nM
same,Free Plasma,"[3]; 10 mg/kg PO, 4 h, n = 1, UBP = 0.027",21^£ nM
same,Kp at 4 h,"[3]; brain, 10 mg/kg PO, read-out: Free Brain/Free Plasma",1.1 ± 0.1
same,Kp at 4 h,"[3]; brain, 30 mg/kg PO, read-out: Free Brain/Free Plasma",0.9 ± 0.1
same,Kp at 4 h,"[3]; brain, 100 mg/kg PO, read-out: Free Brain/Free Plasma",1 ± 0.2
same,concentration at 4 h,"[3]; brain, 10 mg/kg, 10 mg/kg PO, UBBr = 0.008, read-out: Free Brain",22 ± 1 nM
same,concentration at 4 h,"[3]; brain, 10 mg/kg, 10 mg/kg PO, mean ± SD, read-out: Brain",2770 ± 380 nM
same,concentration at 4 h,"[3]; brain, 30 mg/kg, 30 mg/kg PO, UBBr = 0.008, read-out: Free Brain",51 ± 16 nM
same,concentration at 4 h,"[3]; brain, 30 mg/kg, 30 mg/kg PO, mean ± SD, read-out: Brain",6420 ± 1960 nM
same,concentration at 4 h,"[3]; brain, 100 mg/kg, 100 mg/kg PO, UBBr = 0.008, read-out: Free Brain",106 ± 21 nM
same,concentration at 4 h,"[3]; brain, 100 mg/kg, 100 mg/kg PO, mean ± SD, read-out: Brain",13300 ± 2620 nM
same,concentration at 4 h,"[3]; plasma, 30 mg/kg, 30 mg/kg PO, UBP = 0.027, read-out: Free Plasma",56 ± 12 nM
same,concentration at 4 h,"[3]; plasma, 30 mg/kg, 30 mg/kg PO, mean ± SD, read-out: Plasma",2060 ± 452 nM
same,concentration at 4 h,"[3]; plasma, 100 mg/kg, 100 mg/kg PO, UBP = 0.027, read-out: Free Plasma",103 ± 3 nM
same,concentration at 4 h,"[3]; plasma, 100 mg/kg, 100 mg/kg PO, mean ± SD, read-out: Plasma",3800 ± 93 nM
same,Kp at 4 h,"[3]; spinal cord, 30 mg/kg PO, read-out: Free Spinal Cord/Free Plasma",0.8 ± 0.6
same,Kp at 4 h,"[3]; spinal cord, 100 mg/kg PO, read-out: Free Spinal Cord/Free Plasma",0.7 ± 0.3
same,concentration at 4 h,"[3]; spinal cord, 30 mg/kg, 30 mg/kg PO, brain free fraction 0.008 used, read-out: Free Spinal Cord",38 ± 17 nM
same,concentration at 4 h,"[3]; spinal cord, 30 mg/kg, 30 mg/kg PO, mean ± SD, read-out: Spinal Cord",3400 ± 2740 nM
same,concentration at 4 h,"[3]; spinal cord, 100 mg/kg, 100 mg/kg PO, brain free fraction 0.008 used, read-out: Free Spinal Cord",95 ± 17 nM
same,concentration at 4 h,"[3]; spinal cord, 100 mg/kg, 100 mg/kg PO, mean ± SD, read-out: Spinal Cord",11900 ± 2180 nM
same,IC50,"Rat primary microglia [4]; FIG. 2B legend, LPS 3EU/ml 24 hours, n=3, read-out: IC50, inhibition of IL-1β release from primary microglia (FIG. 2B legend)",1.3 nM
same,IC50,"Rat primary microglia [4]; LPS 3 EU/ml priming, BzATP 1 mM, read-out: IC50, inhibition of IL-1β release from primary microglia",15 nM
same,% of activity vs. vehicle,Bennett model,69%
same,EC50,"Rat primary microglia [5]; FIG. 2A legend, LPS 3EU/ml, n=3, read-out: EC50, inhibition of NO production (nitrite), representative experiment",0.9 nM
same,IC50,"Rat primary microglia [5]; LPS 3 EU/ml, nitrite, read-out: IC50, inhibition of NO release from LPS-treated microglia (average)",39 nM
same,inhibition at 10 µM,κ-opioid receptors; 10 μM,> 50%
same,IC50,κ-opioid receptors; [7],19000 nM
same,% of activity vs. vehicle,Kaolin model,29%
same,% of activity vs. vehicle,Healthy rats [6],−12%
